Measured values from US20180057547A1, “DIAGNOSTIC AND THERAPEUTIC EPITOPE, AND TRANSGENIC PLANT” (OXFORD UNIVERSITY INNOVATION LIMITED, priority 1999, published 2018).

Legend:
[1] = tested on: PBMC from coeliac volunteers; experiment: Antagonism of A-gliadin 57-73 QE65 interferon gamma ELISPOT response (simultaneous addition of peptide); assay type: cell-based, human; conditions: peptides known to bind HLA-DQ2, 50 μg/ml plus A-gliadin 57-73 QE65 10 μg/ml
Description: Simultaneous addition of peptide (50 μg/ml) or buffer and A-gliadin 57-73 QE65 (10 μg/ml) in IFNgamma ELISPOT using PBMC from coeliac volunteers 6 days after commencing 3 day gluten challenge (n=5). Results were expressed as response with peptide plus A-G 57-73 QE65 (mean of duplicates) as % response with buffer plus A-G 57-73 QE65 (mean of 20 replicates). (See Table 9).

HLA-DQ2 = conditions: cited from earlier work
[2] = tested on: CD4 or CD8 depleted PBMC from coeliac disease subjects; experiment: IFNγ ELISPOT with CD4 and CD8 magnetic bead depleted PBMC; assay type: cell-based, human
Description: Anti-CD4 or anti-CD8 coated magnetic beads (Dynal, Oslo, Norway) were washed four times with RPMI then incubated with PBMC in complete RPMI containing 10% heat inactivated human AB serum (5×10^6 cells/ml) for 30 minutes on ice. Beads were removed using a magnet and cells remaining counted. […] HLA-class II restriction of the immune response to tTG-treated A-gliadin 56-75 was established by incubating PBMC (5×10^6 cells/ml) with anti-HLA-DR (L243), -DQ (L2), and -DP (B7.21) monoclonal antibodies (10 μg/ml) at room temperature for one hour prior to the addition of peptide.

| Sequence | % Inhibit. of A-gliadin 57-73 QE65 interferon gamma ELISpot response [1] | binding to HLA-DQ2 (HLA-DQ2) | spot forming cells per million CD8 depleted PBMC ([2]; Subject 4, tTG treated peptide 0.1 μM) | spot forming cells per million CD8 depleted PBMC ([2]; Subject 6, tTG treated peptide 0.1 μM) | cell subset mediating the IFNγ response ([2]; anti-CD4 and anti-CD8 magnetic bead depletion, two subjects) | % Inhibit. of A-gliadin 57-73 QE65 interferon gamma ELISpot response ([1]; listed as HLA class 1 α 46-60) |
| --- | --- | --- | --- | --- | --- | --- |
| IDVWLGGLLAENFLPY [TP, reference compound] | 31% | bind avidly to HLA-DQ2 |  |  |  |  |
| LQLQPFPQPQLPYPQPQSFP [A-gliadin 56-75, 20mer of A-gliadin, used tTG-treated] |  |  | 29 spot forming cells per million CD8 depleted PBMC | 535 spot forming cells per million CD8 depleted PBMC | CD4 T cell-mediated |  |
| PRAPWIEQEGPEYW [HLA1a, reference compound] | 0% | bind avidly to HLA-DQ2 |  |  |  | does not alter responses |
